Measurements published in patent US9096560B2, “5-heterocyclylalkyl-3-hydroxy-2-phenylcyclopent-2-enones as herbicides” (Syngenta Limited, priority 2008, dated 2015).

Tests used:
Type in all cases: in vivo
[1] = system: Alopecurus myosuroides (ALOMY); test: Example B post-emergence herbicidal test, ALOMY; details: Alopecurus myosuroides, 312 h, rate 250 g/ha, evaluated after 13 days, scale 0-100, read-out: Post-emergence activity ALOMY (100=total damage to plant; 0=no damage to plant)
How it was run: (§1)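 Plants grown from seed in standard soil for 8 days in a glasshouse (24/16 °C day/night, 14 h light, 65% humidity), then sprayed with an aqueous solution from the active ingredient formulated in acetone/water (50:50) with 0.5% Tween 20. Damage scored after 13 days, 0 (none) to 100 (total).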

[2] = system: Alopecurus myosuroides (ALOMY); test: Example B pre-emergence herbicidal test, ALOMY; details: Alopecurus myosuroides, 312 h, rate 250 g/ha, evaluated after 13 days, 100=total damage to plant, 0=no damage to plant
How it was run: (§2)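 Plants were rated 13 days after treatment, 0 = no damage to 100 = total damage. They were grown in a glasshouse at 24/16 °C, 14 h light, 65% humidity and watered twice daily. Pre-emergence spray was applied one day after sowing, formulated in acetone/water 50:50 with 0.5% Tween 20.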

[3] = system: Echinochloa crus-galli (ECHCG); test: Example B pre-emergence herbicidal test, ECHCG; details: Echinochloa crus-galli, 312 h, rate 250 g/ha, evaluated after 13 days, 100=total damage to plant, 0=no damage to plant
How it was run: as §2

Lolium perenne (LOLPE) [4] = test: Example B pre-emergence herbicidal test, LOLPE; details: Lolium perenne, 312 h, rate 250 g/ha, evaluated after 13 days, 100=total damage to plant, 0=no damage to plant
How it was run: as §2

Avena fatua (AVEFA) [5] = test: Example B pre-emergence herbicidal test, AVEFA; details: Avena fatua, 312 h, rate 250 g/ha, evaluated after 13 days, 100=total damage to plant, 0=no damage to plant
How it was run: as §2

[6] = system: Echinochloa crus-galli (ECHCG); test: Example B post-emergence herbicidal test, ECHCG; details: Echinochloa crus-galli, 312 h, rate 250 g/ha, evaluated after 13 days, scale 0-100, read-out: Post-emergence activity ECHCG (100=total damage to plant; 0=no damage to plant)
How it was run: as §1

Lolium perenne (LOLPE) [7] = test: Example B post-emergence herbicidal test, LOLPE; details: Lolium perenne, 312 h, rate 250 g/ha, evaluated after 13 days, scale 0-100, read-out: Post-emergence activity LOLPE (100=total damage to plant; 0=no damage to plant)
How it was run: as §1

Avena fatua (AVEFA) [8] = test: Example B post-emergence herbicidal test, AVEFA; details: Avena fatua, 312 h, rate 250 g/ha, evaluated after 13 days, scale 0-100, read-out: Post-emergence activity AVEFA (100=total damage to plant; 0=no damage to plant)
How it was run: as §1

Row | Compound | pest or weed control at 250 g/ha [1] | pest or weed control at 250 g/ha [2] | pest or weed control at 250 g/ha [3] | pest or weed control at 250 g/ha (Lolium perenne (LOLPE) [4]) | pest or weed control at 250 g/ha (Avena fatua (AVEFA) [5]) | pest or weed control at 250 g/ha [6] | pest or weed control at 250 g/ha (Lolium perenne (LOLPE) [7]) | pest or weed control at 250 g/ha (Avena fatua (AVEFA) [8])
1 | Cc1cc(C)c(C2C(=O)CC(CC3CCN(C(=O)OC(C)C)CC3)C2=O)c(C)c1 (stereo not drawn) [Compound T107] | 70% | 80% | 70% | 70% | 60% | 60% | 90% | 90%
2 | CCOC(=O)N1CCC(CC2CC(=O)C(c3c(C)cc(C)cc3C)C2=O)CC1 (stereo not drawn) [Compound T108] | 70% | 10% | 60% | 50% | 40% | 40% | 70% | 70%
3 | Cc1cc(C)c(C2C(=O)CC(CC3CCN(C(=O)c4cccs4)CC3)C2=O)c(C)c1 (stereo not drawn) [Compound T110] | 30% | 30% | 70% | 50% | 30% | 40% | 50% | 80%
4 | Cc1cc(C)c(C2C(=O)CC(CC3CCN(S(=O)(=O)C(F)(F)F)CC3)C2=O)c(C)c1 (stereo not drawn) [Compound T112] | 40% | 40% | 30% | 50% | 20% | 30% | 30% | 30%
5 | Cc1cc(C)c(C2C(=O)CC(CC3CCN(C(=O)CC(C)C)CC3)C2=O)c(C)c1 (stereo not drawn) [Compound T113] | 90% | 60% | 90% | 70% | 70% | 70% | 100% | 100%
6 | Cc1cc(C)c(C2C(=O)CC(CC3CCN(C(=O)C4CCCC4)CC3)C2=O)c(C)c1 (stereo not drawn) [Compound T114] | 40% | 50% | 60% | 40% | 20% | 30% | 50% | 40%
7 | Cc1cc(C)c(C2C(=O)CC(CC3CCN(C(=O)c4c(C)noc4C)CC3)C2=O)c(C)c1 (stereo not drawn) [Compound T118] | 60% | 40% | 30% | 40% | 20% | 40% | 30% | 80%
8 | Cc1cc(C)c(C2C(=O)CC(CC3CCN(C(=O)c4cc(C)on4)CC3)C2=O)c(C)c1 (stereo not drawn) [Compound T119] | 90% | 40% | 100% | 80% | 30% | 90% | 90% | 80%
9 | Cc1cc(C)c(C2C(=O)CC(CC3CCN(C(=O)N4CCCCC4)CC3)C2=O)c(C)c1 (stereo not drawn) [Compound T120] | 30% | 30% | 30% | 20% | 10% | 10% | 30% | 20%
10 | Cc1cc(C)c(C2C(=O)CC(CC3CCN(C(=O)c4cc(C)nn4C)CC3)C2=O)c(C)c1 (stereo not drawn) [Compound T121] | 80% | 30% | 90% | 80% | 60% | 80% | 90% | 100%
11 | Cc1cccc(C(=O)N2CCC(CC3CC(=O)C(c4c(C)cc(C)cc4C)C3=O)CC2)c1 (stereo not drawn) [Compound T122] | 60% | 20% | 70% | 50% | 20% | 70% | 80% | 30%
12 | COCCOC(=O)N1CCC(CC2CC(=O)C(c3c(C)cc(C)cc3C)C2=O)CC1 (stereo not drawn) [Compound T123] | 80% | 60% | 60% | 60% | 60% | 60% | 70% | 90%
13 | Cc1cc(C)c(C2C(=O)CC(CC3CCN(C(=O)c4cn(C)nc4C(F)F)CC3)C2=O)c(C)c1 (stereo not drawn) [Compound T124] | 30% | 20% | 30% | 20% | 10% | 20% | 20% | 30%
14 | Cc1cc(C)c(C2C(=O)CC(CC3CCN(C(=O)c4ccsc4)CC3)C2=O)c(C)c1 (stereo not drawn) [Compound T126] | 50% | 30% | 50% | 60% | 40% | 60% | 70% | 70%
15 | Cc1cc(C)c(C2C(=O)CC(CC3C[C@@H]4O[C@H]3[C@@H]3C(=O)N(C)C(=O)[C@@H]34)C2=O)c(C)c1 (stereo partly drawn) [Compound T128] | 40% | 70% | 60% | 50% | 40% | 50% | 50% | 90%
16 | Cc1cc(C)c(C2C(=O)CC(CC3OCCO3)C2=O)c(C)c1 (stereo not drawn) [Compound T130] | 60% | 70% | 30% | 100% | 10% | 60% | 90% | 70%
17 | Cc1cc(C)c(C2C(=O)CC(CC3CCN(C(=O)C(F)(F)C(F)F)C3)C2=O)c(C)c1 (stereo not drawn) [Compound T131] | 90% | 70% | 100% | 90% | 70% | 90% | 100% | 90%
18 | Cc1cc(-c2ccc(Cl)cc2F)cc(C)c1C1C(=O)C/C(=C\C2CCOCC2)C1=O (stereo not drawn) [Compound T132] | 70% | 20% | 90% | 70% | 70% | 100% | 70% | 80%
